In brackets after ≈: the same amount, converted by molar mass. Read-outs that look alike come from different tables or passages of the source.
Tests used:
[1] = tested on: C.krusei; experiment: In vitro antifungal test; type: cell-based; details: Pichia kudriavzevii
[2] = tested on: Staphylococcus epidermidis; experiment: Comparative MIC experiment, Zicao extract vs Shikonin compounds
[3] = tested on: stenotrophomonas bacilli; experiment: Drug sensitivity test (MIC)
[4] = tested on: mycoplasma pneumoniae; experiment: Bacteriostatic effect on mycoplasma
[5] = tested on: Serratia marcescens; experiment: Comparative MIC experiment, Zicao extract vs Shikonin compounds
[6] = tested on: aspergillus fumigatus, cryptococcus and red trichophyton; experiment: In vitro antifungal test; type: cell-based
[7] = tested on: DHBV; experiment: Virus restraint in DHBV-infected duck; type: in vivo; details: oral, 100mg/kg twice a day, 10 days
[8] = tested on: Helicobacter pylori; experiment: Drug sensitivity test (MIC)
[9] = tested on: dermatophyte; experiment: In vitro antifungal test; type: cell-based
[10] = tested on: S180; experiment: Animal test of tumor restraint; type: in vivo
[11] = tested on: Pseudallescheria boydii; experiment: In vitro antifungal test; type: cell-based; details: Scedosporium boydii
[12] = tested on: Candida albicans; experiment: Comparative MIC experiment, Zicao extract vs Shikonin compounds
[13] = tested on: pneumobacillus; experiment: Drug sensitivity test (MIC)
[14] = tested on: Bacteroid; experiment: Comparative MIC experiment, Zicao extract vs Shikonin compounds; type: cell-based
[15] = tested on: Ascitic tyre liver cancer; experiment: Animal test of tumor restraint; type: in vivo
[16] = tested on: bacteroides fragilis; experiment: Drug sensitivity test (MIC)
[17] = tested on: Lewis lung cancer; experiment: Animal test of tumor restraint; type: in vivo
[18] = tested on: candida and cryptococcus; experiment: In vitro antifungal test; type: cell-based
[19] = tested on: Gram-positive staphylococcus aureus; experiment: Drug sensitivity test (MIC)
[20] = tested on: red trichophyton; experiment: In vitro antifungal test; type: cell-based
[21] = tested on: W256; experiment: Animal test of tumor restraint; type: in vivo
[22] = tested on: L1210; experiment: Animal test of tumor restraint; type: in vivo
[23] = tested on: cryptococcus neoformans; experiment: In vitro antifungal test; type: cell-based
[24] = stenotrophomonas bacilli, stated as especially effective, compared with berberine
[25] = bacteroid, especially bacteroides fragilis
[26] = Gram-positive staphylococcus aureus

`CC(C)=CCC(OC(=O)C=C(C)C)C1=CC(=O)c2c(O)ccc(O)c2C1=O` (stereo not drawn) was tested, and the MIC [1] was 8.32 to 16.6 µg/mL (≈ 22.5 to 44.8 µM), the MIC [2] was 0.391 µg/mL (≈ 1.06 µM) and the MIC ([3]; Stenotrophomonas) was 0.391 to 0.781 µg/mL (≈ 1.06 to 2.11 µM). It also gave an MIC ([4]; Mycoplasma) of 2 µg/mL (≈ 5.4 µM), an MIC [5] of 0.781 µg/mL (≈ 2.11 µM) and an MIC [6] of 3.06 to 250 µg/mL (≈ 8.27 to 675 µM). For the same compound, the toxic reaction [7] was “without toxic reaction”, the MIC [8] was 0.391 to 0.781 µg/mL (≈ 1.06 to 2.11 µM) and the MIC [9] was 4.16 to 8.32 µg/mL (≈ 11.2 to 22.5 µM). It also gave an MIC90 [9] of 4.16 µg/mL (≈ 11.2 µM), a Tumor inhibitory rate [10] of 9.63% and an MIC [11] of 4.16 to 8.32 µg/mL (≈ 11.2 to 22.5 µM). For the same compound, the MIC [12] was 3.91 µg/mL (≈ 10.5 µM), the MIC [13] was 0.391 to 6.25 µg/mL (≈ 1.06 to 16.9 µM) and the MIC ([13]; some bacterial strains) was 12.5 to 50 µg/mL (≈ 33.7 to 135 µM). It also gave an MIC [14] of 0.391 µg/mL (≈ 1.06 µM), a Life prolonged rate [15] of 113.4% and an MIC ([16]; Bacteroides fragilis) of 0.391 to 6.25 µg/mL (≈ 1.06 to 16.9 µM). For the same compound, the Tumor inhibitory rate [17] was 42.8%, the MIC [18] was 2.08 to 33.3 µg/mL (≈ 5.62 to 89.9 µM) and the MIC90 [18] was 33.3 µg/mL (≈ 89.9 µM). It also gave an MIC ([19]; Staphylococcus aureus) of 0.391 to 12.5 µg/mL (≈ 1.06 to 33.7 µM).

With `CC(=O)O[C@H](CC=C(C)C)C1=CC(=O)c2c(O)ccc(O)c2C1=O` [Acetylshikonin] the MIC [20] was 0.9062- 62.5 ¦Ìg/ml, the MIC [3, 24] was 0.391-0.781 ì g/ml and the MIC ([4]; mycoplasma pneumoniae) was 7.819 ì g/ml. The MIC [8] was 0.391 - 0.781 ì g/ml, the Tumor inhibitory rate [10] was 35.7% and the MIC [13] was 0.391-6.25 ì g/ml. For the same compound, the MIC ([13]; some bacterial strains) was 12.5-50 ì g/ml, the Tumor inhibitory rate [21] was 77% and the Life prolonged rate [15] was 112.6%. For the same compound, the Tumor inhibitory rate [15] was 47.8%, the MIC [16, 25] was 0.391-6.25 ì g/ml and the Tumor inhibitory rate [17] was 52.6%. For the same compound, the Life prolonged rate [22] was 128%, the MIC [23] was 3.906 ¦Ìg/ml and the MIC [19, 26] was 0.391-12.5 ì g/ml.

`CC(C)=CC[C@@H](O)C1=CC(=O)c2c(O)ccc(O)c2C1=O` [Shikonin] was tested, and the MIC [3, 24] was 0.391-0.781 ì g/ml, the MIC ([4]; mycoplasma pneumoniae) was 3.751 ì g/ml and the MIC [8] was 0.391 - 0.781 ì g/ml. The MIC [13] was 0.391-6.25 ì g/ml, the MIC ([13]; some bacterial strains) was 12.5-50 ì g/ml and the Life prolonged rate [15] was 130.8%. For the same compound, the MIC [16, 25] was 0.391-6.25 ì g/ml and the MIC [19, 26] was 0.391-12.5 ì g/ml.

Compound `COc1ccc2cc3[n+](cc2c1OC)CCc1cc2c(cc1-3)OCO2` [berberine, reference compound] has an MIC ([3]; Stenotrophomonas) of 8 to 32 µg/mL.

`OC(Cn1cncn1)(Cn1cncn1)c1ccc(F)cc1F` [fluconazole, reference compound] showed an MIC [9] of 32 to 64 µg/mL (≈ 104 to 209 µM) and an MIC90 [9] of 64 µg/mL (≈ 209 µM).
